According to patent US20100120738A1, “ANTI-APOPTOTIC BENZODIAZEPINE RECEPTOR LIGAND INHIBITORS” (priority 2006, published 2010):
pIC50: −log10 of the molar value. Like-named read-outs stand apart in the source and are kept apart here.

Tests used:
[1] = test system: Bovine capillary endothelial cells; test: Cytotoxicity/necrosis of non-irradiated cells (LDH release, field number); format: cell-based
Procedure: Bovine capillary endothelial cells were cultured on eight-chamber Labtek slides and exposed to ionizing radiation (20 Gy), which was calibrated using an X-ray exposure meter. […] In control experiments, cells either received no ionizing radiation (sham) or no compound. After 6 h incubation, the cells were fixed in methanol and stained with 5 μg/ml 4,6-diamidino-2-phenylindole (DAPI). DNA was visualized using a Nikon epifluorescence microscope, and apoptosis was scored and expressed as an apoptotic index (% apoptotic cells in a field of 100). […] Field number was also calculated for all other compounds tested as a control (results not shown).
To determine cytotoxicity of the compounds under these conditions, duplicate samples of the cells receiving a dose of compound at each concentration tested in the absence of a dose of ionizing radiation were assayed for release of LDH into the culture medium.

[2] = test system: cultured mesencephalic tissue slices; test: MPP+ induced neurodegeneration in cultured mesencephalic tissue slices (LDH release); format: cell-based, rat; conditions: 20 μM MPP+; compound 100 nM, 1.0 μM, 10 μM; FIG. 17
Procedure: FIG. 17 is a graphical representation showing the effects of exemplary low molecular weight metalloporphyrin compounds of the present invention on MPP+ induced neurodegeneration in cultured mesencephalic tissue slices. Mesencephalic tissue slices were prepared from PND 3-5 rats and maintained in culture for 2 weeks. The tissue slices were incubated with a porphyrin compound as indicated on the x-axis for 6 hours before adding 20 μM MPP+ to induce neuronal apoptosis. Concentrations of each porphyrin compound tested were 100 nM ? 1.0 μM ? and 10 μM ? Following a further incubation for 48 hours, the slices were collected and the level of lactate dehydrogenase (LDH) released into the medium was determined.

[3] = Oral bioavailability in vivo, plasma levels by LC-MS/MS after intragastric gavage; design: species or system rat
Procedure: FIG. 18 is a graphical representation showing the bioavailability in vivo for the compounds {[{(Porphine-5,15-diyl)bis[cyclopropyl-diyl]}](2-)-N^21,N^22,N^23,N^24} manganese(III) acetate (EUK-418) and {[{(Porphine-5,15-diyl)bis[benzyl-diyl]}](2-)-N^21,N^22,N^23,N^24} manganese(III) acetate (EUK-423) in rats. Fasted and fed Sprague-Dawley rats were dosed by intragastric gavage with either 4 mg/kg EUK-418 or 2 mg/kg EUK-423. At the times indicated on the x-axis, plasma was obtained from the animals and the concentrations of compounds determined by LC-MS/MS.
Fasted and fed Sprague-Dawley rats were dosed by intragastric gavage with either 4 mg/kg EUK-418 or 2 mg/kg EUK-423. At time points up to 7 hr post-administration, animals were sacrificed, their blood collected over heparin, plasma samples prepared by centrifugation, and plasma levels of the compounds were determined by LC-MS/MS.

[4] = Brain uptake (brain level over plasma level); format: in vivo; conditions: above 20 ul/g indicates delivery across the blood-brain barrier
Procedure: In further studies, compounds are administered orally to animals as described above, or alternatively, by daily i.p. injection for up to five days at concentrations of about 0.3 mg/kg body weight, 3.0 mg/kg and 30 mg/kg. The animals are then sacrificed and their brains removed and snap-frozen in liquid nitrogen. The brains are homogenized in methanol containing 5% TCA, and the soluble fraction is prepared by centrifugation.
Levels of compounds in the brain tissue are determined by LC-MS (HPLLC, Waters; Mass Spectrometer, Micromass Quattro). The half-life of each compound administered to the animals is determined over a period of time from about 5 minutes up to about 2 days.
Brain bioavailability is determined by calculating brain uptake at all time points. Brain uptake is the ratio of brain levels (as moles/g tissue) over plasma levels (as […] and is expressed as ul/g. One gram of brain tissue contains approximately 20 ul of plasma. Thus, any brain uptake value above 20 ul/g is indicative of delivery across the blood-brain barrier to the brain parenchyma. For example, the brain uptake values for EUK-418 are in excess of about 100 ul/g.

PC12 cells = test: Protection against STS-induced apoptosis in PC12 cells (XTT viability assay); format: cell-based, rat
Procedure: Rat pheochromocytoma (PC12) cells were cultured in collagen-coated 96-well plates according to directions provided by the American Type Culture Collection. Staurosporine was added at various concentrations sufficient to induce apoptosis. Test compounds were added together with the staurosporine. Cells were incubated overnight at 37° C., 5% CO2. After 18-24 hours, test media was removed and cell viability was determined using the XTT viability assay described by Baker et al., J. Pharmacol. Exp, Therapeutics 284, 215-221, 1998, the contents of which are incorporated herein by reference.

[5] = Lipophilicity by octanol partitioning; format: physicochemical; conditions: octanol-water
Procedure: To indicate the likelihood that the compounds will cross lipid membranes and be absorbed once administered by oral means, their lipophilicities were determined by octanol partitioning. […] Quantitation was performed by HPLC-UV.

[6] = test system: Bovine capillary endothelial cells; test: Protection against radiation-induced apoptosis (DAPI apoptotic index); format: cell-based; conditions: low doses; FIG. 13 and FIG. 14
Procedure: Bovine capillary endothelial cells were cultured on eight chamber Labtek slides and exposed to ionizing radiation (20 Gy) for 6 hours. After this time, cells were either left untreated or treated with compound at the concentration indicated on the x-axis. Cells were then fixed in methanol and stained with 5 μg/ml DAPI and DNA was visualized using a Nikon epifluorescence microscope, and apoptosis scored and expressed as an apoptotic index according to the percentage of apoptotic cells in a field of 100 cells. Open bars indicate apoptotic index following irradiation. Hatched bars indicate apoptotic index for control cells not receiving a dose of ionizing radiation.
Bovine capillary endothelial cells were cultured on eight-chamber Labtek slides and exposed to ionizing radiation (20 Gy), which was calibrated using an X-ray exposure meter. […] In control experiments, cells either received no ionizing radiation (sham) or no compound. After 6 h incubation, the cells were fixed in methanol and stained with 5 μg/ml 4,6-diamidino-2-phenylindole (DAPI). DNA was visualized using a Nikon epifluorescence microscope, and apoptosis was scored and expressed as an apoptotic index (% apoptotic cells in a field of 100).

[7] = Stability in USP simulated gastric fluid (SGF); format: in vitro ADME; conditions: 37° C., pH approx. 1.2
Text: Aliquots of SGF were withdrawn and intact compound quantitated by HPLC-UV.

[8] = Superoxide dismutase (SOD) activity; format: biochemical
[9] = Plasma recovery after oral dose (another study); format: in vivo; conditions: 3.5 mg/kg dose administered orally; not shown
[10] = FIG. 12, at up to about 5 μM concentration, toxicity blunts protection at high concentrations
[11] = cuvette format, read-out: Cuvette IC50
[12] = microplate format, read-out: Microplate IC50
[13] = FIG. 12, among compounds tested

Compound	necrosis at the protective concentration ([1]; 3 μM EUK-418, about 3-10 μM EUK-423)	concentration causing significant increase in field number for control cells, indicating cytotoxicity ([1]; control cells without ionizing radiation) [µM]	prevention of cytotoxicity induced by MPP+ [2]	effect of fasting of animals on plasma concentration ([3]; 4 mg/kg intragastric gavage)	plasma concentration to which compound declined for the assayed period ([3]; 4 mg/kg intragastric gavage, fasted rats, up to 7 hr)	plasma time course ([3]; intragastric gavage, 4 mg/kg EUK-418 or 2 mg/kg EUK-423)	found in plasma / bioavailable after oral administration ([3]; intragastric gavage, 4 mg/kg EUK-418 or 2 mg/kg EUK-423, fasted and fed rats)	brain uptake value (brain level / plasma level) [4] [µL/g]	effect on staurosporine-induced apoptosis of PC12 cells (PC12 cells; FIG. 11)	effect on staurosporine-induced apoptosis of PC12 cells (PC12 cells; [10])	Log10 P value [5]	P value (octanol partitioning coefficient) [5]	protection of cells exposed to ionizing radiation [6]	Percentage remaining after 90 mins in SGF [7] [%]	pIC50 [8, 11]	pIC50 [8, 12]	recovery from plasma [9]	relative activity against STS-induced apoptosis (PC12 cells; [13])	relative toxicity in PC12 model (PC12 cells; [13])
C1=Cc2nc1cc1ccc([n-]1)c(C1CC1)c1nc(cc3ccc([n-]3)c2C2CC2)C=C1.CC(=O)[O-].[Mn+3] [EUK-418, {[{(Porphine-5,15-diyl)bis[cyclopropyl-diyl]}](2-)-N^21,N^22,N^23,N^24} manganese(III) acetate]	failed to induce noticeable necrosis	≥ 30	prevent cytotoxicity	increase plasma concentration	about 100 ng/ml	increased rapidly in serum of fasted rats	bioavailable in vivo	> 100	effectively reduce apoptosis	effectively reduce apoptosis	0.548 ± 0.009	3.53 ± 0.14	protected	92.2	5.08	6.42			
C1=Cc2nc1cc1ccc([n-]1)c(C1CCOCC1)c1nc(cc3ccc([n-]3)c2C2CCOCC2)C=C1.[Cl-].[Mn+3] [EUK-451, {[{(Porphine-5,15-diyl)bis[4-Tetrahydropyrano-diyl]}](2-)-N^21,N^22,N^23,N^24} manganese(III) chloride]										effectively reduce apoptosis	−0.660 ± 0.011	0.219 ± 0.005		100	4.54	5.62	recovered from plasma at low levels	highest activity	lowest toxicity
